According to US10597366B2, “Aryl ethers and uses thereof” (Peloton Therapeutics, Inc., priority 2013, dated 2020):

What follows are compounds tested on 786-O-Hif-Luc cells (luciferase gene driven by multiple HIF responsive elements) (assay: Luciferase Assay). Conditions: 24 h, 786-O-Hif-Luc cells, about 24 hours; read-out: Mean Luciferease EC50.
Assay type: cell-based
Procedure: A pool of infected cells were then selected against 2 μg/mL of puromycin (P8833, Sigma) for 10 days followed by limited dilution to select single clones.
Each concentration was tested in triplicate. After about 24 hours, luciferase activity was determined using ONE-Glo Luciferase Assay Reagent (E6110, Promega) following the manufacturer's recommended procedure. EC50 were calculated by using Dotmatics software.

Row | EC50 | SMILES
1 | 280 nM | CS(=N)(=O)c1ccc(Oc2cc(F)cc(F)c2)c2c1[C@H](O)C(F)(F)C2 (stereo partly drawn) [Compound 192, ((S)-7-(3,5-Difluorophenoxy)-2,2-difluoro-3-hydroxy-2,3-dihydro-1H-inden-4-yl)(imino)(methyl)-λ^6-sulfanone]
2 | 330 nM | O=S(=O)(c1ccc(Oc2ccc(F)c(Br)c2)c2c1[C@H](O)C(F)(F)C2)C(F)F [Compound 194, (S)-4-(3-Bromo-4-fluorophenoxy)-7-((difluoromethyl)sulfonyl)-2,2-difluoro-2,3-dihydro-1H-inden-1-ol]
3 | 2560 nM | O=C1c2c(S(=O)(=O)C(F)F)ccc(Oc3ccc(F)c(F)c3)c2CC1(F)F [Compound 195, 7-((Difluoromethyl)sulfonyl)-4-(3,4-difluorophenoxy)-2,2-difluoro-2,3-dihydro-1H-inden-1-one]
4 | 290 nM | Cc1cc(Oc2ccc(S(=O)(=O)C(F)F)c3c2CC(F)(F)[C@H]3O)ccc1F [Compound 198, (S)-7-((Difluoromethyl)sulfonyl)-2,2-difluoro-4-(4-fluoro-3-methylphenoxy)-2,3-dihydro-1H-inden-1-ol]
5 | 130 nM | N#Cc1cc(Oc2ccc(S(=O)(=O)C(F)F)c3c2CC(F)(F)[C@H]3O)ccc1F [Compound 200, (S)-5-((7-((Difluoromethyl)sulfonyl)-2,2-difluoro-1-hydroxy-2,3-dihydro-1H-inden-4-yl)oxy)-2-fluorobenzonitrile]
6 | 3600 nM | N#Cc1cc(F)cc(Oc2ccc(S(=O)(=O)C(F)F)c3c2CCC3F)c1 (stereo not drawn) [Compound 202, 3-((7-((Difluoromethyl)sulfonyl)-1-fluoro-2,3-dihydro-1H-inden-4-yl)oxy)-5-fluorobenzonitrile]
7 | 830 nM | N#Cc1cc(F)cc(Oc2ccc(S(=O)(=O)C(F)F)c3c2CC(F)(F)[C@H]3N)c1 [Compound 207, (S)-3-((1-Amino-7-((difluoromethyl)sulfonyl)-2,2-difluoro-2,3-dihydro-1H-inden-4-yl)oxy)-5-fluorobenzonitrile]
8 | 1900 nM | N#Cc1cc(F)cc(Oc2ccc(S(=O)(=O)C3CCC3)c3c2CC(F)(F)[C@H]3O)c1 [Compound 209, (S)-3-((7-(Cyclobutylsulfonyl)-2,2-difluoro-1-hydroxy-2,3-dihydro-1H-inden-4-yl)oxy)-5-fluorobenzonitrile]
9 | 1600 nM | O=S(=O)(c1ccc(Oc2ccc(F)cc2)c2c1C(O)CC2)C(F)(F)F (stereo not drawn) [Compound 212, 4-(4-Fluorophenoxy)-7-((trifluoromethyl)sulfonyl)-2,3-dihydro-1H-inden-1-ol]
10 | 770 nM | Cc1cc(Oc2cc(F)cc(C#N)c2)c2c(c1S(C)(=O)=O)C(O)C(F)(F)C2 (stereo not drawn) [Compound 213, 3-((2,2-Difluoro-1-hydroxy-6-methyl-7-(methylsulfonyl)-2,3-dihydro-1H-inden-4-yl)oxy)-5-fluorobenzonitrile]
11 | 1270 nM | O=S(=O)(c1ccc(Oc2ccc(F)c(F)c2)c2c1C(O)CC2)C(F)(F)F (stereo not drawn) [Compound 214, 4-(3,4-Difluorophenoxy)-7-((trifluoromethyl)sulfonyl)-2,3-dihydro-1H-inden-1-ol]
12 | 22 nM | N#Cc1cc(F)cc(Oc2ccc(S(=O)(=O)CCl)c3c2CC(F)(F)[C@H]3O)c1 [Compound 215, (S)-3-((7-((Chloromethyl)sulfonyl)-2,2-difluoro-1-hydroxy-2,3-dihydro-1H-inden-4-yl)oxy)-5-fluorobenzonitrile]
13 | 3500 nM | O=S(=O)(c1ccc(Oc2ccc(F)c(Cl)c2)c2c1C(O)CC2)C(F)(F)F (stereo not drawn) [Compound 218, 4-(3-Chloro-4-fluorophenoxy)-7-((trifluoromethyl)sulfonyl)-2,3-dihydro-1H-inden-1-ol]
14 | 2100 nM | N#Cc1cncc(Oc2ccc(S(=O)(=O)C(F)(F)F)c3c2CCC3O)c1 (stereo not drawn) [Compound 220, 5-((1-Hydroxy-7-((trifluoromethyl)sulfonyl)-2,3-dihydro-1H-inden-4-yl)oxy)nicotinonitrile]
15 | 26 nM | O=S(=O)(c1ccc(Oc2ccc(F)c(Cl)c2)c2c1[C@H](O)C(F)(F)C2)C(F)(F)F [Compound 221, (S)-4-(3-Chloro-4-fluorophenoxy)-2,2-difluoro-7-((trifluoromethyl)sulfonyl)-2,3-dihydro-1H-inden-1-ol]
16 | 1800 nM | CS(=O)(=O)c1ccc(Oc2cc(F)cc(C#N)c2)c2c1C(O)CC2 (stereo not drawn) [Compound 222, 3-Fluoro-5-((1-hydroxy-7-(methylsulfonyl)-2,3-dihydro-1H-inden-4-yl)oxy)benzonitrile]
17 | 180 nM | Cn1cc(Oc2ccc(S(=O)(=O)C(F)(F)F)c3c2CC(F)(F)[C@H]3O)cn1 [Compound 224, (S)-2,2-Difluoro-4-((1-methyl-1H-pyrazol-4-yl)oxy)-7-((trifluoromethyl)sulfonyl)-2,3-dihydro-1H-inden-1-ol]
18 | 120 nM | N#Cc1cc(F)cc(Oc2ccc(S(=O)(=O)C(F)F)c3c2CC(F)(F)[C@@H]3O)c1 [Compound 237, (R)-3-((7-((difluoromethyl)sulfonyl)-2,2-difluoro-1-hydroxy-2,3-dihydro-1H-inden-4-yl)oxy)-5-fluorobenzonitrile]
19 | 140 nM | O=S(=O)(c1ccc(Oc2ccc(F)c3[nH]ncc23)c2c1C(O)C(F)(F)C2)C(F)(F)F (stereo not drawn) [Compound 241, 2,2-Difluoro-4-((7-fluoro-1H-indazol-4-yl)oxy)-7-((trifluoromethyl)sulfonyl)-2,3-dihydro-1H-inden-1-ol]
20 | 510 nM | O=S(=O)(CF)c1ccc(Oc2cccc3sccc23)c2c1C(O)C(F)(F)C2 (stereo not drawn) [Compound 242, 4-(Benzo[b]thiophen-4-yloxy)-2,2-difluoro-7-((fluoromethyl)sulfonyl)-2,3-dihydro-1H-inden-1-ol]

Same assay, conditions: 24 h, read-out: Mean Luciferease EC50

Row | EC50 | SMILES
21 | 62 nM | CCS(=O)(=O)c1ccc(Oc2cc(F)cc(C#N)c2)c2c1[C@H](O)C(F)(F)C2 [Compound 206, (S)-3-((7-(Ethylsulfonyl)-2,2-difluoro-1-hydroxy-2,3-dihydro-1H-inden-4-yl)oxy)-5-fluorobenzonitrile]
22 | 63 nM | CS(=O)(=O)c1ccc(Oc2cc(F)cc(C#N)c2)c2c1C(O)C(F)(F)C2 (stereo not drawn) [Compound 223, 3-((2,2-Difluoro-1-hydroxy-7-(methylsulfonyl)-2,3-dihydro-1H-inden-4-yl)oxy)-5-fluorobenzonitrile]
23 | 3500 nM | CS(=O)(=O)c1ccc(Oc2cc(F)cc(C#N)c2)c2c1[C@@H](O)C(F)(F)C2 [Compound 226, (R)-3-((2,2-Difluoro-1-hydroxy-7-(methylsulfonyl)-2,3-dihydro-1H-inden-4-yl)oxy)-5-fluorobenzonitrile]
24 | 24 nM | [2H]C([2H])([2H])S(=O)(=O)c1ccc(Oc2cc(F)cc(C#N)c2)c2c1[C@]([2H])(O)C(F)(F)C2 [Compound 229]
25 | 36 nM | CS(=O)(=O)c1ccc(Oc2cc(F)cc(C#N)c2)c2c1[C@H](O)[C@H](F)C2 [Compound 231, 3-Fluoro-5-(((1S,2R)-2-fluoro-1-hydroxy-7-(methylsulfonyl)-2,3-dihydro-1H-inden-4-yl)oxy)benzonitrile]
26 | 35 nM | CS(=O)(=O)c1ccc(Oc2cc(F)cc(C#N)c2)c2c1C(O)C(F)C2 (stereo not drawn) [Compound 232, 3-Fluoro-5-((2-fluoro-1-hydroxy-7-(methylsulfonyl)-2,3-dihydro-1H-inden-4-yl)oxy)benzonitrile]
27 | 15 nM | N#Cc1cncc(Oc2ccc(S(=O)(=O)C(F)(F)F)c3c2CC(F)(F)[C@H]3O)c1 [Compound 235, (S)-5-((2,2-Difluoro-1-hydroxy-7-((trifluoromethyl)sulfonyl)-2,3-dihydro-1H-inden-4-yl)oxy)nicotinonitrile]
